Assay results from ChEMBL document CHEMBL5260833, “An overview of quinazolines: Pharmacological significance and recent developments” (Eur J Med Chem, 2018).

Experiments:
Format in all cases: functional
Tobacco mosaic virus = test: Antiviral activity against TMV at 500 microg/ml; conditions: dose 500 µg/ml
Rattus norvegicus [1] = test: Anticonvulsant activity in ip dosed albino rat measured after 1 hrs
Rattus norvegicus [2] = test: Antiinflammatory activity in carrageenan induced rat at assessed as reduction in paw edema 50 mg/kg, po relative to control; parameters: scale not given: the % may be the effect or the level left

SMILES | Activity (Rattus norvegicus [1]) [%] | Activity (Rattus norvegicus [2]) [%] | also measured
Cc1nc2ccc(Br)cc2c(=O)n1/C=C/c1cc([N+](=O)[O-])ccc1Cl |  |  | Activity (Tobacco mosaic virus): 54%
Cc1nc2ccccc2c(=O)n1NC1=NOC(c2ccc(N(C)C)cc2)C1 (stereo not given) | 50 |  | 
CC(=O)N1N=C(Nn2c(C)nc3ccccc3c2=O)CC1c1ccc(O)cc1 (stereo not given) | 50 |  | 
COc1cccc(/C=C/n2c(C)nc3ccc(Br)cc3c2=O)c1OC |  |  | Activity (Tobacco mosaic virus): 54%
Cc1nc2ccc(Br)cc2c(=O)n1NC(=O)/C=C/c1ccc(N(C)C)cc1 | 50 |  | 
O=C(/C=C/c1ccccc1)NN1C(=O)CC1c1nc2ccccc2c(=O)n1-c1ccccc1Cl (stereo not given) |  | 10.28 | 
COc1cc(/C=C/C(=O)NN2C(=O)CC2c2nc3ccc(Br)cc3c(=O)n2-c2ccccc2)ccc1O (stereo not given) |  | 10.28 | 
Cc1nc2ccccc2c(=O)n1NC(=O)/C=C/c1ccc(N(C)C)cc1 | 50 |  | 
COc1ccc(/C=C/n2c(C)nc3ccc(Br)cc3c2=O)cc1OC |  |  | Activity (Tobacco mosaic virus): 54%
Cc1nc2ccc(Br)cc2c(=O)n1/C=C/c1ccc(F)c(F)c1 |  |  | Activity (Tobacco mosaic virus): 54%
COc1ccc(/C=C/n2c(C)nc3ccc(Br)cc3c2=O)c(OC)c1 |  |  | Activity (Tobacco mosaic virus): 54%
CC(C)c1ccc(/C=C/C(=O)NNCc2nc3ccc(Br)cc3c(=O)n2-c2cccc(Cl)c2)cc1 |  | 10.28 | 
O=C(/C=C/c1ccccc1)NNCc1nc2ccc(Br)cc2c(=O)n1-c1ccccc1 |  | 10.28 | 
O=c1c2ccccc2nc(-c2ccccc2)n1/C=C/c1c(Cl)cccc1Cl |  |  | Activity (Tobacco mosaic virus): 54%
COc1ccc(C2CC(Nn3c(C)nc4ccc(Br)cc4c3=O)=NO2)cc1 (stereo not given) | 50 |  | 
Cc1nc2ccc(Br)cc2c(=O)n1/C=C/c1cccc(C(F)(F)F)c1F |  |  | Activity (Tobacco mosaic virus): 54%
COc1cc(/C=C/C(=O)Nn2c(C)nc3ccccc3c2=O)ccc1O | 50 |  | 
COc1ccccc1-n1c(CNNC(=O)/C=C/c2ccc(C(C)C)cc2)nc2ccccc2c1=O |  | 10.28 | 
O=C(/C=C/c1ccccc1)NN1C(=O)CC1c1nc2ccc(Br)cc2c(=O)n1-c1ccccc1 (stereo not given) |  | 10.28 | 
COc1ccc(C2CC(Nn3c(C)nc4ccccc4c3=O)=NO2)cc1 (stereo not given) | 50 |  | 
Cc1nc2ccc(Br)cc2c(=O)n1/C=C/c1c(Cl)cccc1Cl |  |  | Activity (Tobacco mosaic virus): 54%
NNCc1nc2ccc(Br)cc2c(=O)n1-c1ccccc1 |  | 10.28 | 
COc1cc(C2CC(Nn3c(C)nc4ccccc4c3=O)=NN2C(C)=O)ccc1O (stereo not given) | 50 |  | 
Cc1nc2ccc(Br)cc2c(=O)n1NC(=O)/C=C/c1ccccc1 | 50 |  | 
CC(C)c1ccc(/C=C/C(=O)NN2C(=O)CC2c2nc3ccc(Br)cc3c(=O)n2-c2cccc(Cl)c2)cc1 (stereo not given) |  | 10.28 | 

SMILES | Activity (Rattus norvegicus [1]) [%] | Activity (Rattus norvegicus [2]) [%] | also measured
Cc1nc2ccccc2c(=O)n1NC1=NOC(c2ccccc2)C1 (stereo not given) | 50 |  | 
CC(C)c1ccc(/C=C/C(=O)NN2C(=O)CC2c2nc3ccc(Br)cc3c(=O)n2-c2ccccc2)cc1 (stereo not given) |  | 10.28 | 
Cc1nc2ccc(Br)cc2c(=O)n1/C=C/c1ccc(F)cc1 |  |  | Activity (Tobacco mosaic virus): 54%
COc1ccc(/C=C/C(=O)NNCc2nc3ccc(Br)cc3c(=O)n2-c2ccccc2)cc1 |  | 10.28 | 
CC(=O)NNCc1nc2ccc(Br)cc2c(=O)n1-c1cccc(Cl)c1 |  | 10.28 | 
O=c1c2ccccc2nc(-c2ccncc2)n1/C=C/c1ccccc1 |  |  | Activity (Tobacco mosaic virus): 54%
COc1ccc(/C=C/C(=O)NN2C(=O)CC2c2nc3ccc(Br)cc3c(=O)n2-c2cccc(Cl)c2)cc1 (stereo not given) |  | 10.28 | 
CC(=O)NNCc1nc2ccccc2c(=O)n1-c1ccccc1Cl |  | 10.28 | 
O=c1c2cc(Br)ccc2nc(CBr)n1-c1cccc(Cl)c1 |  | 10.28 | 
Cc1nc2ccc(Br)cc2c(=O)n1NC(=O)/C=C/c1ccc(O)cc1 | 50 |  | 
CC(=O)N1N=C(Nn2c(C)nc3ccccc3c2=O)CC1c1ccc(N(C)C)cc1 (stereo not given) | 50 |  | 
Cc1nc2ccccc2c(=O)n1NC(=O)/C=C/c1ccc(O)cc1 | 50 |  | 
CC(=O)N1N=C(Nn2c(C)nc3ccc(Br)cc3c2=O)CC1c1ccc(N(C)C)cc1 (stereo not given) | 50 |  | 
CC(=O)Nn1c(C)nc2ccc(Br)cc2c1=O | 50 |  | 
NNCc1nc2ccccc2c(=O)n1-c1ccccc1Cl |  | 10.28 | 
COc1cc(/C=C/C(=O)Nn2c(C)nc3ccc(Br)cc3c2=O)ccc1O | 50 |  | 
COc1ccccc1-n1c(CNN)nc2ccccc2c1=O |  | 10.28 | 
Cc1nc2ccc(Br)cc2c(=O)n1/C=C/c1ccccc1F |  |  | Activity (Tobacco mosaic virus): 54%
O=c1c2ccccc2nc(-c2ccccc2)n1/C=C/c1cccc(C(F)(F)F)c1 |  |  | Activity (Tobacco mosaic virus): 54%
Cc1nc2ccc(Br)cc2c(=O)n1/C=C/c1cccc(F)c1 |  |  | Activity (Tobacco mosaic virus): 54%
COc1ccc(/C=C/C(=O)NN2C(=O)CC2c2nc3ccc(Br)cc3c(=O)n2-c2ccccc2)cc1 (stereo not given) |  | 10.28 | 
CC(=O)Nn1c(C)nc2ccccc2c1=O | 50 |  | 
COc1cc(/C=C/C(=O)NNCc2nc3ccccc3c(=O)n2-c2ccccc2Cl)ccc1O |  | 10.28 | 
COc1ccc(/C=C/C(=O)NNCc2nc3ccccc3c(=O)n2-c2ccccc2Cl)cc1 |  | 10.28 | 
Cc1nc2ccc(Br)cc2c(=O)n1/C=C/c1cccc(Cl)c1 |  |  | Activity (Tobacco mosaic virus): 54%

SMILES | Activity (Rattus norvegicus [1]) [%] | Activity (Rattus norvegicus [2]) [%] | also measured
COc1ccc(C2CC(Nn3c(C)nc4ccccc4c3=O)=NN2C(C)=O)cc1 (stereo not given) | 50 |  | 
Cc1nc2ccc(Br)cc2c(=O)n1/C=C/c1cc(O)cc(Cl)c1 |  |  | Activity (Tobacco mosaic virus): 54%
O=c1c2ccccc2nc(-c2ccccc2)n1/C=C/c1ccc(Cl)c([N+](=O)[O-])c1 |  |  | Activity (Tobacco mosaic virus): 54%
O=C(/C=C/c1ccccc1)NNCc1nc2ccccc2c(=O)n1-c1ccccc1Cl |  | 10.28 | 
COc1ccccc1-n1c(CBr)nc2ccccc2c1=O |  | 10.28 | 
O=c1c2cc(Br)ccc2nc(CBr)n1-c1ccccc1 |  | 10.28 | 
O=c1c2ccccc2nc(-c2ccncc2)n1/C=C/c1cccc(Cl)c1Cl |  |  | Activity (Tobacco mosaic virus): 54%
CC(=O)N1N=C(Nn2c(C)nc3ccc(Br)cc3c2=O)CC1c1ccccc1 (stereo not given) | 50 |  | 
COc1cc(C2CC(Nn3c(C)nc4ccc(Br)cc4c3=O)=NO2)ccc1O (stereo not given) | 50 |  | 
COc1ccc(/C=C/C(=O)NNCc2nc3ccc(Br)cc3c(=O)n2-c2cccc(Cl)c2)cc1 |  | 10.28 | 
COc1cc(C2CC(Nn3c(C)nc4ccc(Br)cc4c3=O)=NN2C(C)=O)ccc1O (stereo not given) | 50 |  | 
CC(=O)N1N=C(Nn2c(C)nc3ccccc3c2=O)CC1c1ccccc1 (stereo not given) | 50 |  | 
Cc1nc2ccc(Br)cc2c(=O)n1NC1=NOC(c2ccc(O)cc2)C1 (stereo not given) | 50 |  | 
O=C(/C=C/c1ccccc1)NN1C(=O)CC1c1nc2ccc(Br)cc2c(=O)n1-c1cccc(Cl)c1 (stereo not given) |  | 10.28 | 
COc1ccc(/C=C/C(=O)NN2C(=O)CC2c2nc3ccccc3c(=O)n2-c2ccccc2Cl)cc1 (stereo not given) |  | 10.28 | 
CC(C)c1ccc(/C=C/C(=O)NNCc2nc3ccc(Br)cc3c(=O)n2-c2ccccc2)cc1 |  | 10.28 | 
CC(=O)N1N=C(Nn2c(C)nc3ccc(Br)cc3c2=O)CC1c1ccc(O)cc1 (stereo not given) | 50 |  | 
Cc1nc2ccc(Br)cc2c(=O)n1/C=C/c1ccc(Cl)cc1Cl |  |  | Activity (Tobacco mosaic virus): 54%
Cc1nc2ccc(Br)cc2c(=O)n1/C=C/c1ccc(Cl)c([N+](=O)[O-])c1 |  |  | Activity (Tobacco mosaic virus): 54%
COc1ccc(OC)c(/C=C/n2c(C)nc3ccc(Br)cc3c2=O)c1 |  |  | Activity (Tobacco mosaic virus): 54%
CC(C)c1ccc(/C=C/C(=O)NN2C(=O)CC2c2nc3ccccc3c(=O)n2-c2ccccc2Cl)cc1 (stereo not given) |  | 10.28 | 
CN(C)c1ccc(/C=C/C(=O)NNCc2nc3ccccc3c(=O)n2-c2ccccc2Cl)cc1 |  | 10.28 | 
Cc1nc2ccccc2c(=O)n1/C=C/c1cccc(Cl)c1Cl |  |  | Activity (Tobacco mosaic virus): 54%
O=c1c2ccccc2nc(CBr)n1-c1ccccc1Cl |  | 10.28 | 
COc1ccc(/C=C/C(=O)Nn2c(C)nc3ccc(Br)cc3c2=O)cc1 | 50 |  | 

SMILES | Activity (Rattus norvegicus [1]) [%] | Activity (Rattus norvegicus [2]) [%] | also measured
COc1ccccc1-n1c(CNNC(C)=O)nc2ccccc2c1=O |  | 10.28 | 
O=c1c2ccccc2nc(-c2ccccc2)n1/C=C/c1cccc(Cl)c1 |  |  | Activity (Tobacco mosaic virus): 54%
Cc1nc2ccc(Br)cc2c(=O)n1NC1=NOC(c2ccccc2)C1 (stereo not given) | 50 |  | 
O=c1c2ccccc2nc(-c2ccncc2)n1/C=C/c1ccccc1Cl |  |  | Activity (Tobacco mosaic virus): 54%
COc1cc(/C=C/C(=O)NNCc2nc3ccccc3c(=O)n2-c2ccccc2OC)ccc1O |  | 10.28 | 
COc1cc(/C=C/C(=O)NNCc2nc3ccc(Br)cc3c(=O)n2-c2cccc(Cl)c2)ccc1O |  | 10.28 | 
COc1ccccc1-n1c(C2CC(=O)N2NC(=O)/C=C/c2ccc(C(C)C)cc2)nc2ccccc2c1=O (stereo not given) |  | 10.28 | 
O=C(/C=C/c1ccccc1)NNCc1nc2ccc(Br)cc2c(=O)n1-c1cccc(Cl)c1 |  | 10.28 | 
COc1ccc(/C=C/C(=O)Nn2c(C)nc3ccccc3c2=O)cc1 | 50 |  | 
Cc1nc2ccc(Br)cc2c(=O)n1/C=C/c1ccccc1C(F)(F)F |  |  | Activity (Tobacco mosaic virus): 54%
COc1cc(/C=C/C(=O)NN2C(=O)CC2c2nc3ccccc3c(=O)n2-c2ccccc2Cl)ccc1O (stereo not given) |  | 10.28 | 
COc1cc(/C=C/C(=O)NNCc2nc3ccc(Br)cc3c(=O)n2-c2ccccc2)ccc1O |  | 10.28 | 
O=c1c2ccccc2nc(-c2ccccc2)n1/C=C/c1ccc(C(F)(F)F)cc1 |  |  | Activity (Tobacco mosaic virus): 54%
CC(=O)NNCc1nc2ccc(Br)cc2c(=O)n1-c1ccccc1 |  | 10.28 | 
COc1cc(/C=C/C(=O)NN2C(=O)CC2c2nc3ccccc3c(=O)n2-c2ccccc2OC)ccc1O (stereo not given) |  | 10.28 | 
Cc1nc2ccccc2c(=O)n1NC1=NOC(c2ccc(O)cc2)C1 (stereo not given) | 50 |  | 
NNCc1nc2ccc(Br)cc2c(=O)n1-c1cccc(Cl)c1 |  | 10.28 | 
O=c1c2ccccc2nc(-c2ccccc2)n1/C=C/c1ccc(F)c(F)c1 |  |  | Activity (Tobacco mosaic virus): 54%
Cc1nc2ccccc2c(=O)n1NC(=O)/C=C/c1ccccc1 | 50 |  | 
O=c1c2ccccc2nc(-c2ccncc2)n1/C=C/c1ccc(F)cc1 |  |  | Activity (Tobacco mosaic virus): 54%
COc1cc(/C=C/C(=O)NN2C(=O)CC2c2nc3ccc(Br)cc3c(=O)n2-c2cccc(Cl)c2)ccc1O (stereo not given) |  | 10.28 | 
COc1cc(C2CC(Nn3c(C)nc4ccccc4c3=O)=NO2)ccc1O (stereo not given) | 50 |  | 
COc1ccc(C2CC(Nn3c(C)nc4ccc(Br)cc4c3=O)=NN2C(C)=O)cc1 (stereo not given) | 50 |  | 
O=c1c2ccccc2nc(-c2ccccc2)n1/C=C/c1cc(Cl)cc(Cl)c1 |  |  | Activity (Tobacco mosaic virus): 54%
Cc1nc2ccc(Br)cc2c(=O)n1NC1=NOC(c2ccc(N(C)C)cc2)C1 (stereo not given) | 50 |  | 
